{
  "source": "patent US20150099753A1",
  "about": "“FORM 5 POLYMORPH OF 7-(TERT-BUTYL-D9)-3-(2,5-DIFLUOROPHENYL)-6-((1-METHYL-1H-1,2,4-TRIAZOL-5-YL)METHOXY)-[1,2,4]TRIAZOLO[4,3-B]PYRIDAZINE” (Concert Pharmaceuticals Inc., priority 2012, published 2015)",
  "format_in_all_cases": "physicochemical",
  "key": {"[1]": {"experiment": "Dynamic Vapor Sorption (DVS) analysis", "conditions": "DVS at 25° C., 0% RH to 90% RH cycles", "description": "Dynamic Vapor Sorption (DVS). DVS experiments were conducted on a Surface Measurement Systems DVS-HT at 25° C. The instrument was operated in step mode and the relative humidity was increased in 10% RH increments from 40% RH to 90% RH, then decreased from 90% RH to 0% RH, then increased from 0% RH to 90% RH, then decreased from 90% RH to 0% RH. An extra step at 75% RH was included in each cycle. The mass equilibrium criterion was set at 0.005% change in mass over time (dm/dt) prior to each humidity level. A minimum step time of 10 minutes and a maximum step time of 240 minutes were specified."}, "[2]": {"experiment": "Crystal form stability when suspended and stirred in MeOH:water", "conditions": "stirred for 72 hours at ambient temperature"}, "[3]": {"experiment": "Relative thermodynamic stability of non-solvated forms (ripening studies)", "conditions": "temperatures from between 22° C. and 70° C.", "description": "Excess Form 1 was combined with EtOH (1.8 mL) and the suspension was stirred at 57° C. for 6 hrs. The suspension was allowed to settle, and the saturated EtOH solution was isolated, and added into a 2-mL vial containing a mixture of Forms 1, Form 3, and Form 4 ([…] of each). The suspension was stirred at 57° C. for 24 hrs. The solid was isolated on a Büchner funnel and air-dried for ˜6 hrs.\nOnce the above preparation of Form 5 was obtained, additional Form 5 was produced as follows. Form 1 (100 mg) was weighed into a […] 4-mL vial containing a stir-bar. EtOH (4-mL) was added and the suspension was stirred for 12 hrs and at 25° C. The suspension was filtered and the filtrate (1.8 mL) was added into a 2-mail vial containing equivalent amounts (10 mg) of Forms 3, 4, and 5. An aliquot of the suspension was immediately sampled; the solid was isolated by filtration, and analyzed by PXRD to verify the crystal-form. The suspension was stirred at 25° C. for an additional 24 hrs. A second aliquot was sampled; the solid was isolated by filtration, and analyzed to verify the crystal-form. […]\nOnce Form 5 crystals were isolated they were used to prepare additional Form 5 as follows. […] The solid was isolated on a Büchner funnel and air-dried for ˜6 hrs and determined to be Form 5."}, "[4]": {"experiment": "Physical (crystal form) stability on exposure to ambient conditions or relative humidity"}},
  "data": [
    {"molecule": "[2H]C([2H])([2H])C(c1cc2nnc(-c3cc(F)ccc3F)n2nc1OCc1ncnn1C)(C([2H])([2H])[2H])C([2H])([2H])[2H]", "note": "[Form 5, 7-(tert-Butyl-d9)-3-(2,5-difluorophenyl)-6-((1-methyl-1H-1,2,4-triazol-5-yl)methoxy)-[1,2,4]triazolo[4,3-b]pyridazine]", "values": [
      {"measurement": "DVS weight gain (hygroscopicity; non-hygroscopic)", "setting": "[1]", "value": "< 0.4", "unit": "% wt. gain"},
      {"measurement": "crystal form conversion in suspension", "setting": "[2]; suspended in MeOH:water 95:5% volume", "value": "converts to Form 2"},
      {"measurement": "crystal form conversion in suspension", "setting": "[2]; suspended in MeOH:water 98:2% volume", "value": "converts to Form 2"},
      {"measurement": "thermodynamic stability relative to other non-solvated forms (Forms 1, 3 and 4)", "setting": "[3]", "value": "more thermodynamically stable than any of the other non-solvated forms"},
      {"measurement": "physical stability", "setting": "[4]; exposed to 75% relative humidity for 5 days", "value": "physically stable"},
      {"measurement": "physical stability", "setting": "[4]; exposed to 97% RH for 5 days at room temperature", "value": "physically unstable and partially converts to hydrated crystal Form 2"},
      {"measurement": "physical stability", "setting": "[4]; exposed to ambient conditions for at least 7 days", "value": "physically stable"}
    ]}
  ]
}
